Test results reported in PubChem BioAssay (NCI).
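Interpolation was linear, between the two tested concentrations surrounding the appropriate level; five concentrations were tested over 48 hours in 96-well plates. TGI is the concentration that stops growth completely.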

Legend:
Assay in all cases: NCI-60 cell line screen, 48 h
EKVX NSCLC = tested on: EKVX NSCLC
SNB-78 CNS = tested on: SNB-78 CNS
MOLT-4 leukemia = tested on: MOLT-4 leukemia
SNB-75 CNS = tested on: SNB-75 CNS
KM12 colon = tested on: KM12 colon
A498 renal = tested on: A498 renal
HCC-2998 colon = tested on: HCC-2998 colon
OVCAR-4 ovarian = tested on: OVCAR-4 ovarian
SN12C renal = tested on: SN12C renal
NCI-H226 lung = tested on: NCI-H226 lung
SR leukemia = tested on: SR leukemia
OVCAR-8 ovarian = tested on: OVCAR-8 ovarian
DLD-1 colon = tested on: DLD-1 colon
786-0 renal = tested on: 786-0 renal
UACC-257 melanoma = tested on: UACC-257 melanoma
TK-10 renal = tested on: TK-10 renal
KM20L2 colon = tested on: KM20L2 colon
RXF-631 renal = tested on: RXF-631 renal
MALME-3M melanoma = tested on: MALME-3M melanoma
NCI-H460 lung = tested on: NCI-H460 lung
A549 NSCLC = tested on: A549 NSCLC
NCI-H23 lung = tested on: NCI-H23 lung
K-562 leukemia = tested on: K-562 leukemia
HCT-116 colon = tested on: HCT-116 colon
HOP-18 NSCLC = tested on: HOP-18 NSCLC
LOX IMVI melanoma = tested on: LOX IMVI melanoma
COLO 205 colon = tested on: COLO 205 colon
LXFL 529 NSCLC = tested on: LXFL 529 NSCLC
DMS 114 small cell lung = tested on: DMS 114 small cell lung
HL-60(TB) leukemia = tested on: HL-60(TB) leukemia
M14 melanoma = tested on: M14 melanoma
OVCAR-5 ovarian = tested on: OVCAR-5 ovarian
DMS 273 small cell lung = tested on: DMS 273 small cell lung
HT29 colon = tested on: HT29 colon
SW-620 colon = tested on: SW-620 colon
ACHN renal = tested on: ACHN renal
UO-31 renal = tested on: UO-31 renal
U251 CNS = tested on: U251 CNS
RPMI-8226 leukemia = tested on: RPMI-8226 leukemia
SF-539 CNS = tested on: SF-539 CNS
CAKI-1 renal = tested on: CAKI-1 renal
IGROV1 ovarian = tested on: IGROV1 ovarian
SK-MEL-5 melanoma = tested on: SK-MEL-5 melanoma
SK-MEL-28 melanoma = tested on: SK-MEL-28 melanoma
HCT-15 colon = tested on: HCT-15 colon
HOP-62 NSCLC = tested on: HOP-62 NSCLC
CCRF-CEM leukemia = tested on: CCRF-CEM leukemia
RXF 393 renal = tested on: RXF 393 renal
SK-MEL-2 melanoma = tested on: SK-MEL-2 melanoma
SNB-19 CNS = tested on: SNB-19 CNS
M19-MEL melanoma = tested on: M19-MEL melanoma
SK-OV-3 ovarian = tested on: SK-OV-3 ovarian
SF-295 CNS = tested on: SF-295 CNS
XF 498 CNS = tested on: XF 498 CNS
UACC-62 melanoma = tested on: UACC-62 melanoma
SF-268 CNS = tested on: SF-268 CNS
HOP-92 NSCLC = tested on: HOP-92 NSCLC
NCI-H522 lung = tested on: NCI-H522 lung
OVCAR-3 ovarian = tested on: OVCAR-3 ovarian

In the case of `O=C(Nc1cc(Cl)c(Cl)cc1Cl)C(=O)C1C(=O)NC(=S)NC1=O`, the TGI (EKVX NSCLC) is reported as > 100 µM, the TGI (SNB-78 CNS) is reported as > 100 µM and the TGI (MOLT-4 leukemia) is reported as > 100 µM. The TGI (SNB-75 CNS) was > 100 µM, the TGI (KM12 colon) was > 100 µM and the TGI (A498 renal) was > 100 µM. The TGI (HCC-2998 colon) was > 100 µM, the TGI (OVCAR-4 ovarian) was > 100 µM and the TGI (SN12C renal) was > 100 µM. For the same compound, the TGI (NCI-H226 lung) was > 100 µM, the TGI (SR leukemia) was > 100 µM and the TGI (OVCAR-8 ovarian) was > 100 µM. The TGI (DLD-1 colon) was > 100 µM, the TGI (786-0 renal) was > 100 µM and the TGI (UACC-257 melanoma) was > 100 µM. The TGI (TK-10 renal) was > 100 µM, the TGI (KM20L2 colon) was > 100 µM and the TGI (RXF-631 renal) was > 100 µM. For the same compound, the TGI (MALME-3M melanoma) was > 100 µM, the TGI (NCI-H460 lung) was > 100 µM and the TGI (A549 NSCLC) was > 100 µM. For the same compound, the TGI (NCI-H23 lung) was > 100 µM, the TGI (K-562 leukemia) was > 100 µM and the TGI (HCT-116 colon) was > 100 µM. For the same compound, the TGI (HOP-18 NSCLC) was > 100 µM, the TGI (LOX IMVI melanoma) was > 100 µM and the TGI (COLO 205 colon) was > 100 µM. For the same compound, the TGI (LXFL 529 NSCLC) was > 100 µM, the TGI (DMS 114 small cell lung) was > 100 µM and the TGI (HL-60(TB) leukemia) was > 100 µM. For the same compound, the TGI (M14 melanoma) was > 100 µM, the TGI (OVCAR-5 ovarian) was > 100 µM and the TGI (DMS 273 small cell lung) was > 100 µM. The TGI (HT29 colon) was > 100 µM, the TGI (SW-620 colon) was > 100 µM and the TGI (ACHN renal) was > 100 µM. The TGI (UO-31 renal) was > 100 µM, the TGI (U251 CNS) was > 100 µM and the TGI (RPMI-8226 leukemia) was > 100 µM. The TGI (SF-539 CNS) was > 100 µM, the TGI (CAKI-1 renal) was > 100 µM and the TGI (IGROV1 ovarian) was > 100 µM. For the same compound, the TGI (SK-MEL-5 melanoma) was > 100 µM, the TGI (SK-MEL-28 melanoma) was > 100 µM and the TGI (HCT-15 colon) was > 100 µM. For the same compound, the TGI (HOP-62 NSCLC) was > 100 µM, the TGI (CCRF-CEM leukemia) was > 100 µM and the TGI (RXF 393 renal) was > 100 µM. For the same compound, the TGI (SK-MEL-2 melanoma) was > 100 µM, the TGI (SNB-19 CNS) was > 100 µM and the TGI (M19-MEL melanoma) was > 100 µM. For the same compound, the TGI (SK-OV-3 ovarian) was > 100 µM, the TGI (SF-295 CNS) was > 100 µM and the TGI (XF 498 CNS) was > 100 µM. For the same compound, the TGI (UACC-62 melanoma) was > 100 µM, the TGI (SF-268 CNS) was > 100 µM and the TGI (HOP-92 NSCLC) was > 100 µM. The TGI (NCI-H522 lung) was > 100 µM.

`Cn1c(O)c(C(=O)NC2CCCCC2)c(=O)n(C)c1=S` showed a TGI (MOLT-4 leukemia) of 12.6 µM, a TGI (KM12 colon) of 27.7 µM and a TGI (A498 renal) of 13 µM. The TGI (OVCAR-4 ovarian) was 42.7 µM, the TGI (SN12C renal) was 59.9 µM and the TGI (NCI-H226 lung) was 30.5 µM. It also gave a TGI (SR leukemia) of 48.9 µM, a TGI (OVCAR-8 ovarian) of 17.9 µM and a TGI (DLD-1 colon) of 24 µM. For the same compound, the TGI (786-0 renal) was 22.9 µM, the TGI (UACC-257 melanoma) was 28.5 µM and the TGI (TK-10 renal) was 33.3 µM. It also gave a TGI (KM20L2 colon) of 23.4 µM, a TGI (RXF-631 renal) of 20.1 µM and a TGI (NCI-H460 lung) of 21.9 µM. For the same compound, the TGI (A549 NSCLC) was 17.4 µM, the TGI (NCI-H23 lung) was 14.5 µM and the TGI (HOP-18 NSCLC) was 9.63 µM. For the same compound, the TGI (LOX IMVI melanoma) was 28.5 µM, the TGI (COLO 205 colon) was 4.42 µM and the TGI (LXFL 529 NSCLC) was 16 µM. The TGI (OVCAR-3 ovarian) was 26.6 µM, the TGI (M14 melanoma) was 21.4 µM and the TGI (OVCAR-5 ovarian) was 38.9 µM. The TGI (SW-620 colon) was 25 µM, the TGI (ACHN renal) was 13.7 µM and the TGI (U251 CNS) was 26.7 µM. It also gave a TGI (RPMI-8226 leukemia) of 17.2 µM, a TGI (SF-539 CNS) of 21.4 µM and a TGI (CAKI-1 renal) of 26.5 µM. It also gave a TGI (IGROV1 ovarian) of 27.8 µM, a TGI (SK-MEL-5 melanoma) of 17 µM and a TGI (SK-MEL-28 melanoma) of 16.8 µM. The TGI (HCT-15 colon) was 25.9 µM, the TGI (HOP-62 NSCLC) was 16.8 µM and the TGI (CCRF-CEM leukemia) was > 100 µM. The TGI (SK-MEL-2 melanoma) was 15 µM, the TGI (SNB-19 CNS) was 71.2 µM and the TGI (SK-OV-3 ovarian) was 23.8 µM. For the same compound, the TGI (SF-295 CNS) was 17.8 µM, the TGI (UACC-62 melanoma) was 14.4 µM and the TGI (SF-268 CNS) was 21.6 µM. For the same compound, the TGI (HOP-92 NSCLC) was 8.48 µM and the TGI (NCI-H522 lung) was 16.9 µM.

With `O=C(/C=C/c1ccc(Cl)c(Cl)c1)c1ccc2ccccc2c1` the TGI (EKVX NSCLC) was > 100 µM, the TGI (SNB-78 CNS) was > 100 µM and the TGI (MOLT-4 leukemia) was > 100 µM. For the same compound, the TGI (SNB-75 CNS) was > 100 µM, the TGI (KM12 colon) was > 100 µM and the TGI (A498 renal) was > 100 µM. The TGI (HCC-2998 colon) was > 100 µM, the TGI (OVCAR-4 ovarian) was > 100 µM and the TGI (SN12C renal) was 71.6 µM. For the same compound, the TGI (NCI-H226 lung) was > 100 µM, the TGI (SR leukemia) was > 100 µM and the TGI (OVCAR-8 ovarian) was > 100 µM. For the same compound, the TGI (DLD-1 colon) was > 100 µM, the TGI (786-0 renal) was > 100 µM and the TGI (UACC-257 melanoma) was > 100 µM. For the same compound, the TGI (TK-10 renal) was > 100 µM, the TGI (KM20L2 colon) was > 100 µM and the TGI (RXF-631 renal) was > 100 µM. For the same compound, the TGI (MALME-3M melanoma) was > 100 µM, the TGI (NCI-H460 lung) was > 100 µM and the TGI (A549 NSCLC) was > 100 µM. The TGI (NCI-H23 lung) was > 100 µM, the TGI (K-562 leukemia) was > 100 µM and the TGI (HCT-116 colon) was > 100 µM. For the same compound, the TGI (HOP-18 NSCLC) was > 100 µM, the TGI (LOX IMVI melanoma) was > 100 µM and the TGI (COLO 205 colon) was 28.7 µM. For the same compound, the TGI (LXFL 529 NSCLC) was > 100 µM, the TGI (DMS 114 small cell lung) was > 100 µM and the TGI (HL-60(TB) leukemia) was > 100 µM. The TGI (OVCAR-3 ovarian) was > 100 µM, the TGI (M14 melanoma) was > 100 µM and the TGI (OVCAR-5 ovarian) was > 100 µM. The TGI (DMS 273 small cell lung) was > 100 µM, the TGI (HT29 colon) was > 100 µM and the TGI (SW-620 colon) was > 100 µM. For the same compound, the TGI (ACHN renal) was > 100 µM, the TGI (UO-31 renal) was > 100 µM and the TGI (U251 CNS) was > 100 µM. The TGI (RPMI-8226 leukemia) was > 100 µM, the TGI (SF-539 CNS) was > 100 µM and the TGI (CAKI-1 renal) was > 100 µM. The TGI (IGROV1 ovarian) was > 100 µM, the TGI (SK-MEL-5 melanoma) was > 100 µM and the TGI (SK-MEL-28 melanoma) was > 100 µM. The TGI (HCT-15 colon) was > 100 µM, the TGI (HOP-62 NSCLC) was > 100 µM and the TGI (CCRF-CEM leukemia) was > 100 µM. The TGI (RXF 393 renal) was > 100 µM, the TGI (SK-MEL-2 melanoma) was > 100 µM and the TGI (SNB-19 CNS) was > 100 µM. The TGI (M19-MEL melanoma) was > 100 µM, the TGI (SK-OV-3 ovarian) was > 100 µM and the TGI (SF-295 CNS) was > 100 µM. The TGI (UACC-62 melanoma) was > 100 µM, the TGI (SF-268 CNS) was > 100 µM and the TGI (HOP-92 NSCLC) was > 100 µM. The TGI (NCI-H522 lung) was > 100 µM.
